According to PubChem BioAssay (NCI):
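All cell lines were grown in 96-well plates and treated with compound for 48 hours. Definition used: TGI = concentration required for complete inhibition of growth.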

How the values were obtained:
Assay in all cases: DTP human tumour cell line panel, 48 h
MCF7 breast = system: MCF7 breast
COLO 205 colon = system: COLO 205 colon
A549 NSCLC = system: A549 NSCLC
OVCAR-8 ovarian = system: OVCAR-8 ovarian
HOP-92 NSCLC = system: HOP-92 NSCLC
NCI/ADR-RES ovarian = system: NCI/ADR-RES ovarian
IGROV1 ovarian = system: IGROV1 ovarian
SNB-19 CNS = system: SNB-19 CNS
NCI-H460 lung = system: NCI-H460 lung
TK-10 renal = system: TK-10 renal
HCT-116 colon = system: HCT-116 colon
MALME-3M melanoma = system: MALME-3M melanoma
M14 melanoma = system: M14 melanoma
786-0 renal = system: 786-0 renal
MDA-N = system: MDA-N
HT29 colon = system: HT29 colon
SF-539 CNS = system: SF-539 CNS
HCT-15 colon = system: HCT-15 colon
BT-549 breast = system: BT-549 breast
HOP-62 NSCLC = system: HOP-62 NSCLC
CCRF-CEM leukemia = system: CCRF-CEM leukemia
SN12C renal = system: SN12C renal
SF-268 CNS = system: SF-268 CNS
KM12 colon = system: KM12 colon
SW-620 colon = system: SW-620 colon
MOLT-4 leukemia = system: MOLT-4 leukemia
LOX IMVI melanoma = system: LOX IMVI melanoma
OVCAR-4 ovarian = system: OVCAR-4 ovarian
SK-MEL-28 melanoma = system: SK-MEL-28 melanoma
SF-295 CNS = system: SF-295 CNS
OVCAR-3 ovarian = system: OVCAR-3 ovarian
UO-31 renal = system: UO-31 renal
A498 renal = system: A498 renal
DU-145 prostate = system: DU-145 prostate
SNB-75 CNS = system: SNB-75 CNS
SR leukemia = system: SR leukemia
MDA-MB-231 breast = system: MDA-MB-231 breast
T-47D breast = system: T-47D breast
OVCAR-5 ovarian = system: OVCAR-5 ovarian
UACC-62 melanoma = system: UACC-62 melanoma
SK-MEL-5 melanoma = system: SK-MEL-5 melanoma
HL-60(TB) leukemia = system: HL-60(TB) leukemia
NCI-H522 lung = system: NCI-H522 lung
EKVX NSCLC = system: EKVX NSCLC
SK-MEL-2 melanoma = system: SK-MEL-2 melanoma
ACHN renal = system: ACHN renal
RPMI-8226 leukemia = system: RPMI-8226 leukemia
NCI-H23 lung = system: NCI-H23 lung
PC-3 prostate = system: PC-3 prostate
HCC-2998 colon = system: HCC-2998 colon
CAKI-1 renal = system: CAKI-1 renal
HS 578T breast = system: HS 578T breast
MDA-MB-435 = system: MDA-MB-435
U251 CNS = system: U251 CNS
UACC-257 melanoma = system: UACC-257 melanoma
K-562 leukemia = system: K-562 leukemia
RXF 393 renal = system: RXF 393 renal
SK-OV-3 ovarian = system: SK-OV-3 ovarian
NCI-H226 lung = system: NCI-H226 lung
DLD-1 colon = system: DLD-1 colon
LXFL 529 NSCLC = system: LXFL 529 NSCLC
SNB-78 CNS = system: SNB-78 CNS
M19-MEL melanoma = system: M19-MEL melanoma
KM20L2 colon = system: KM20L2 colon
XF 498 CNS = system: XF 498 CNS
DMS 114 small cell lung = system: DMS 114 small cell lung

Measured: TGI

COc1cc(OC)cc(OCc2ccc3nc(-c4ccccc4)c(Cl)nc3c2)c1
69.9 µM: SK-MEL-5 melanoma
76.8 µM: A498 renal
37.4 µM: SNB-75 CNS
95.9 µM: OVCAR-8 ovarian
28.1 µM: CAKI-1 renal
55.6 µM: TK-10 renal
66.4 µM: HOP-92 NSCLC | IGROV1 ovarian
20.3 µM: NCI-H522 lung
30.5 µM: MDA-MB-231 breast
32.7 µM: MALME-3M melanoma
33.8 µM: HOP-62 NSCLC
74.1 µM: MOLT-4 leukemia
28.3 µM: 786-0 renal
49.9 µM: SF-539 CNS
68.9 µM: COLO 205 colon
67.8 µM: NCI/ADR-RES ovarian | SF-295 CNS
48 µM: SR leukemia
66.9 µM: SNB-19 CNS
59.9 µM: U251 CNS
65.3 µM: BT-549 breast
not listed: K-562 leukemia | RXF 393 renal | SK-OV-3 ovarian | NCI-H226 lung | DLD-1 colon | LXFL 529 NSCLC | SNB-78 CNS | M19-MEL melanoma | KM20L2 colon | XF 498 CNS | DMS 114 small cell lung
> 100 µM: all other assays above

COc1cc(-c2cc(=O)c3c(OC)c(OC)c(OC)cc3o2)c(OC)c(OC)c1OC
44 µM: HL-60(TB) leukemia
not listed: A498 renal | DLD-1 colon | LXFL 529 NSCLC | SNB-78 CNS | M19-MEL melanoma | KM20L2 colon | XF 498 CNS | DMS 114 small cell lung
> 75 µM: all other assays above

COc1cc2c(c(O)c1OC)C(O)C1CCC(=O)N1C2c1cccc2ccccc12 (configuration not stated)
not listed: TK-10 renal | LOX IMVI melanoma | HCC-2998 colon | DLD-1 colon | LXFL 529 NSCLC | SNB-78 CNS | M19-MEL melanoma | KM20L2 colon | XF 498 CNS | DMS 114 small cell lung
> 100 µM: all other assays above

CN(C)c1ccc(/C=C(\NC(=O)c2ccccc2)C(=O)NCC(=O)O)cc1
not listed: TK-10 renal | OVCAR-4 ovarian | DLD-1 colon | LXFL 529 NSCLC | SNB-78 CNS | M19-MEL melanoma | KM20L2 colon | XF 498 CNS | DMS 114 small cell lung
> 100 µM: all other assays above

COc1ccc(NC(=O)CC(=O)N2N=C(c3ccccc3)C(N=Nc3ccc(S(=O)(=O)CCOS(=O)(=O)O)cc3)C2=O)cc1 (configuration not stated)
not listed: OVCAR-4 ovarian | OVCAR-5 ovarian | DLD-1 colon | LXFL 529 NSCLC | SNB-78 CNS | M19-MEL melanoma | KM20L2 colon | XF 498 CNS | DMS 114 small cell lung
> 100 µM: all other assays above

CN(C)CCC(O)(c1ccccc1)C(O)(CCN(C)C)c1ccccc1 (configuration not stated)
32.6 µM: MALME-3M melanoma
32.8 µM: M14 melanoma
56.7 µM: UACC-257 melanoma
not listed: MCF7 breast | HOP-92 NSCLC | NCI/ADR-RES ovarian | HCT-116 colon | MDA-N | SF-539 CNS | BT-549 breast | LOX IMVI melanoma | DU-145 prostate | SR leukemia | MDA-MB-231 breast | T-47D breast | HL-60(TB) leukemia | PC-3 prostate | HS 578T breast | MDA-MB-435 | RXF 393 renal | NCI-H226 lung
> 100 µM: all other assays above

O=Cc1cc([N+](=O)[O-])no1
33.7 µM: HCT-116 colon
57.4 µM: SK-MEL-2 melanoma
54.2 µM: KM12 colon
86.9 µM: MCF7 breast
90.7 µM: UACC-257 melanoma
64.3 µM: MDA-MB-231 breast
38.6 µM: K-562 leukemia
35.8 µM: OVCAR-4 ovarian
61.6 µM: HT29 colon
35.6 µM: M14 melanoma
81.5 µM: MOLT-4 leukemia
52.6 µM: MDA-N
36.6 µM: SK-MEL-5 melanoma
46.3 µM: UACC-62 melanoma
29.9 µM: MDA-MB-435
not listed: A549 NSCLC | MALME-3M melanoma | 786-0 renal | SF-539 CNS | SF-268 CNS | NCI-H522 lung | EKVX NSCLC | ACHN renal | DLD-1 colon | LXFL 529 NSCLC | SNB-78 CNS | M19-MEL melanoma | KM20L2 colon | XF 498 CNS | DMS 114 small cell lung
> 100 µM: all other assays above
